{"source": "patent US9801922B2", "about": "“Compositions and methods of treating cancer” (UNIVERSITY OF IOWA RESEARCH FOUNDATION, priority 2011, dated 2017)", "key": {"[1]": {"test_system": "Human thioredoxin-1 (hTrx-1)", "assay": "Thioredoxin native redox western blot", "assay_type": "cell-based", "settings": "SUM159", "protocol": "FIG. 7: Human thioredoxin-1 (hTrx-1) native redox western blot analysis of BSO, DTPP and AUR treated SUM159. Asynchronously growing cultures of SUM159 were plated and treated as described in FIG. 1. Cells were harvested and scraped in PBS at 4° C. Whole cell homogenates were used for native gel redox western blot analysis of […].\nThioredoxin Redox Western: The human thioredoxin-1 protein level was determined by Thioredoxin redox western. Approximately 2-3 million treated or untreated SUM159 cells were lysed in G-lysis buffer (50 mM Tris-HCl, pH 8.3, 3 mM EDTA, 6 M guanidine-HCl, 0.5% Triton X-100) containing 50 mM iodoacetic acid (pH 8.3). The lysate was incubated in the dark for thirty minutes. The lysates were then centrifuged in G-25 microspin columns (GE Healthcare). Protein was then quantified, from the eluent by performing a Bradford protein assay, as previously described (Bradford, M. M. A rapid and sensitive method for the quantitation of microgram quantities of protein utilizing the principle of protein-dye binding. Anal Biochem 72:248-254; 1976). Equal amounts of protein were then added to a 15% acrylamide native gel. The gel was then run at 100 V for approximately 1.5 h. The proteins contained in the gel were then transferred to a nitrocellulose membrane (BIORAD Labs), using a semi-dry transfer protocol. The nitrocellose membrane was then washed in PBST (Phosphate buffered saline with 0.1% Tween) before being incubated at 4 overnight with the primary antibody, 1:1000 goat anti-hTrx-1 (American Diagnostica, Inc.) in PBST with 2% BSA. […]"}, "[2]": {"test_system": "SUM159 cells", "assay": "CDCFH2 / CDCF probe labeling (intracellular hydroperoxides), SUM159", "assay_type": "cell-based, human", "settings": "oxidation-sensitive probe", "protocol": "(§1) FIGS. 5A-5D: CDCFH2 oxidation sensitive and CDCF oxidation insensitive probe labeling of BSO, DTPP, and AUR exposed SUM159 and HMECs cells. Asynchronously growing cultures of SUM159 (Panels A, B) and HMECs (Panes C, D) were plated and treated as described in FIG. 1. Monolayer cultures were harvested and trypsinized, washed once with PBS then labeled in PBS with either CDCFH2 (Panesl A, C) or CDCF (Panels B, D)(10 μg/mL, in 0.1% DMSO 15 minutes) at 37° C. Mean fluorescence intensity (MFI) of 10,000 cells was analyzed by flow cytometry. Samples were assayed in triplicate; Mean±1 SEM of 3 separate experiments containing 3 treatment dishes per group (n=9), *p<0.001 as compared to Control.\nFIG. 9: Catalase inhibitable CDCFH2 oxidation in BSO, DTPP, and AUR exposed SUM159 cells. […] Mean fluorescence intensity (MFI) of 10,000 cells was analyzed by flow cytometry. […]\n(§2) Measurement of Intracellular Hydroperoxides: Steady-state levels of hydroperoxides were estimated using the oxidation sensitive {5-(and-6)-carboxy-2′,7′-dichlorodihydrofluorescein diacetate, (CDCFH2)} and oxidation-insensitive {5-(and-6)-carboxy-2′,7′-dichlorofluorescein diacetate, (CDCF)} fluorescent dyes purchased from Molecular Probes. […] Samples were analyzed using a FACScan flowcytometer (Becton Dickinson Immuno-cytometry System, INC., Mountain View, Calif.) (excitation 488 nm, emission 530 nm band-pass filter). […]"}, "[3]": {"test_system": "HMECs", "assay": "CDCFH2 / CDCF probe labeling (intracellular hydroperoxides), HMEC", "assay_type": "cell-based, human", "settings": "oxidation-insensitive probe", "protocol": "as §1\nas §2, with “Probes. Cells were plated and treated with BSO, DTPP and AUR as described above.” for “Probes.”, “filter). The MFI of 10,000 cells was analyzed in each sample and corrected for autofluorescence from unlabeled cells.” for “filter).”"}, "[4]": {"test_system": "SUM159 cells", "assay": "DHE oxidation (intracellular superoxide)", "assay_type": "cell-based, human", "protocol": "FIG. 10: DHE oxidation of BSO,DTPP and AUR exposed SUM159 cells. Asynchronously growing cultures of SUM159 were plated and treated as described in FIG. 1. Monolayer cultures were harvested and trypsinized, washed once with PBS and labeled 40 minutes with 5 μM DHE (in 0.1% DMSO) in PBS containing 5 mM pyruvate at 37° C. Each sample was then analyzed for the Mean fluorescence Intensity (MFI) of 10,000 cells by flow cytometry. Samples were assayed in triplicate; mean±1 SD of 2 experiment containing treatment dishes per group (n=6). *p<0.001 as compared to Control.\nEstimation of intracellular superoxide levels using Dihydroethidium (DHE) oxidation: Steady-state levels of superoxide were estimated using the fluorescent dyes, dihydroethidium (DHE) purchased from Molecular Probes (Eugene, Oreg.). Cells were plated and treated for as described earlier. On day 6, the cells were trypsinized and washed with 5 mM/L pyruvate containing PBS once then labeled with DHE ([…], in 0.1% DMSO, 40 min) at 37° C. After labeling, cells were kept on ice. Samples were analyzed using a FACScan flowcytometer (Becton Dickinson Immunocytometry System, INC., Mountain View, Calif.) (excitation 488 nm, emission 585 nm band-pass filter). The mean fluorescence intensity (MFI) of 10,000 cells was analyzed in each sample and corrected for autofluorescence from unlabeled cells. The MFI data was normalized to control levels."}, "[5]": {"test_system": "A375 melanoma cells", "assay": "MTT survival fraction analysis, A375", "assay_type": "cell-based"}}}
{"smiles": "CC[PH](CC)(CC)[Au][S][C@@H]1O[C@H](COC(C)=O)[C@@H](OC(C)=O)[C@H](OC(C)=O)[C@H]1OC(C)=O", "note": "[AUR, S-triethylphosphinegold(I)-2,3,4,6-tetra-O-acetyl-1-thio-β-D-glucopyranoside]", "values": [{"measurement": "increase of ratio of oxidized thioredoxin to total thioredoxin compared to control", "setting": "[1]", "value": "around 2 fold"}, {"measurement": "increase of the ratio of oxidized Trx-1 to reduced Trx-1", "setting": "[1]; 15 min AUR", "value": 2, "unit": "fold"}]}
{"smiles": "CCCCS(=N)(=O)CCC(N)C(=O)O", "note": "[BSO, L-buthionine-[S,R]-sulfoximine, reference compound]", "values": [{"measurement": "ratio of oxidized thioredoxin to total thioredoxin, in words", "setting": "[1]", "value": "no ratio change"}]}
{"smiles": "CCCCCCCCCC[P+](c1ccccc1)(c1ccccc1)c1ccccc1", "note": "[DTPP, Decyl-Triphenylphosphonium]", "values": [{"measurement": "increase in CDCFH2 oxidation compared to control", "setting": "[2]", "value": 2, "unit": "fold"}, {"measurement": "CDCF labeling signal relative to control", "setting": "[3]", "value": 2, "unit": "fold"}, {"measurement": "increase of DHE oxidation", "setting": "[4]", "value": 1.5, "unit": "fold"}, {"measurement": "cytotoxicity in the absence of BSO, in words", "setting": "[5]", "value": "intermediate cytotoxicity"}]}
